Measurements: patent publication US7198811B2, “Compositions for the preservation of fruits and vegetables” (University of Guelph, priority 2002, dated 2007)

tested on: Cortland apples; experiment: Superficial scald and softening in Cortland apples versus duration of dip treatment; assay type: in vivo; settings: 1 minute, 1500 ppm; CA storage 9 months
Method: The effects of antioxidant formulation of the present invention, and subgroups of its chemical components on post harvest qualities of Cortland apples were investigated.
The effect of the duration of dip treatment of Cortland apples using the antioxidant formulation (Example 1, Solution B) is presented in Table 3C. Ten ml of the formulation of was diluted to a liter. […] Twenty randomly selected apples from each of the treatments were removed and kept at room temperature for a week before evaluations were conducted.
Ten ml of the concentrate of the EAM formulation was diluted to one liter to form the final solution. […] Two bushels of apples were dipped in 40 liters of solution for each time period and subjected to controlled atmosphere storage as defined above. Apples were brought out after 9 months of storage. Twenty apples from each treatment were picked randomly from two independent sets, and left at room temperature for one week before evaluating for scald and softening.
Ten ml of the concentrate of the AOX formulation was diluted to one liter to form the final solution. […] Two bushels of apples were dipped in 40 liters of solution for each time period and subjected to controlled atmosphere storage as defined above. Apples were brought out after 9 months of storage. […]

Q: `c1ccc(Nc2ccccc2)cc1` [DPA, diphenylamine] was tested. Which Softening % did it give?
A: 25%

Q: What about the Superficial scald % of the same molecule?
A: 35%

tested on: Vista Cherries; experiment: Postharvest dips of compositions or individual components on Vista cherries; also: dipped 2.5 min; assay type: in vivo; settings: dipped […], concentration as printed per treatment; stored 4° C. in air
Method: Samples were allowed to dry at room temperature and stored at 4° C. in air. Evaluations were conducted two weeks and four weeks after treatment. The results given are mean of twenty sample values.

Q: With `O=C1O[C@H]([C@@H](O)CO)C(O)=C1O` [Ascorbic Acid] as the molecule, how does the “Firmness (kg) 2 weeks” value read?
A: 1.2 kg

Q: What about the “Firmness (kg) 4 weeks” value of the same molecule?
A: 1.12 kg

Q: With `c1ccc(CNc2ncnc3nc[nH]c23)cc1` [BA, benzyladenine] as the molecule, how does the “Firmness (kg) 2 weeks” value read?
A: 1.24 kg

Q: What about the “Firmness (kg) 4 weeks” value of the same molecule?
A: 1.14 kg

Q: What about the “Soluble Solids (%) 2 weeks” value of the same molecule?
A: 13.8%

Q: How did the “Firmness (kg) 2 weeks” value turn out when `[Ca+2].[Cl-].[Cl-]` [CaCl2, calcium chloride] was run?
A: 1.26 kg

Q: And the “Firmness (kg) 4 weeks” value?
A: 1.09 kg

Q: `CC(C)=CCC/C(C)=C/CO` [Geraniol] was tested. Which “Firmness (kg) 2 weeks” value did it give?
A: 1.01 kg

Q: What about the “Firmness (kg) 4 weeks” value of the same molecule?
A: 1.24 kg

Q: And the “Soluble Solids (%) 4 weeks” value?
A: 17%

Q: With `CC(=O)OC/C=C(\C)CCC=C(C)C` [Geranyl Acetate] as the molecule, how does the “Firmness (kg) 2 weeks” value read?
A: 1.21 kg

Q: And the “Firmness (kg) 4 weeks” value?
A: 1.12 kg

Q: What about the “Soluble Solids (%) 2 weeks” value of the same molecule?
A: 17%

Q: What does the source list for `CCCCCC=O` [Hexanal]?
A: Firmness (kg) 2 weeks: 1.24 kg; Firmness (kg) 4 weeks: 1.16 kg

Q: With `Cc1c(C)c2c(c(C)c1O)CC[C@@](C)(CCC[C@H](C)CCC[C@H](C)CCCC(C)C)O2` [α-tocopherol] as the molecule, how does the “Firmness (kg) 2 weeks” value read?
A: 1.21 kg

Q: And the “Firmness (kg) 4 weeks” value?
A: 1.12 kg

Q: And the “Soluble Solids (%) 4 weeks” value?
A: 16.7%
